Reference: PubChem BioAssay (NCI)
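48-hour exposure; five concentrations; linearly interpolated endpoints. TGI: total growth inhibition.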

What was measured:
Test in all cases: DTP human tumour cell line panel, 48 h
NCI-H522 lung = test system: NCI-H522 lung
SK-MEL-28 melanoma = test system: SK-MEL-28 melanoma
IGROV1 ovarian = test system: IGROV1 ovarian
OVCAR-8 ovarian = test system: OVCAR-8 ovarian
SF-295 CNS = test system: SF-295 CNS
EKVX NSCLC = test system: EKVX NSCLC
HCT-116 colon = test system: HCT-116 colon
SK-MEL-2 melanoma = test system: SK-MEL-2 melanoma
786-0 renal = test system: 786-0 renal
RPMI-8226 leukemia = test system: RPMI-8226 leukemia
OVCAR-5 ovarian = test system: OVCAR-5 ovarian
M14 melanoma = test system: M14 melanoma
HOP-62 NSCLC = test system: HOP-62 NSCLC
KM12 colon = test system: KM12 colon
SF-268 CNS = test system: SF-268 CNS
MOLT-4 leukemia = test system: MOLT-4 leukemia
K-562 leukemia = test system: K-562 leukemia
SK-MEL-5 melanoma = test system: SK-MEL-5 melanoma
TK-10 renal = test system: TK-10 renal
UACC-62 melanoma = test system: UACC-62 melanoma
SR leukemia = test system: SR leukemia
HL-60(TB) leukemia = test system: HL-60(TB) leukemia
SW-620 colon = test system: SW-620 colon
LOX IMVI melanoma = test system: LOX IMVI melanoma
MALME-3M melanoma = test system: MALME-3M melanoma
SNB-75 CNS = test system: SNB-75 CNS
A498 renal = test system: A498 renal
RXF 393 renal = test system: RXF 393 renal
NCI-H226 lung = test system: NCI-H226 lung
HT29 colon = test system: HT29 colon
MDA-MB-435 = test system: MDA-MB-435
NCI-H23 lung = test system: NCI-H23 lung
MDA-N = test system: MDA-N
ACHN renal = test system: ACHN renal
COLO 205 colon = test system: COLO 205 colon
DU-145 prostate = test system: DU-145 prostate
MDA-MB-231 breast = test system: MDA-MB-231 breast
OVCAR-4 ovarian = test system: OVCAR-4 ovarian
BT-549 breast = test system: BT-549 breast
UACC-257 melanoma = test system: UACC-257 melanoma
SNB-19 CNS = test system: SNB-19 CNS
HCT-15 colon = test system: HCT-15 colon
UO-31 renal = test system: UO-31 renal
HOP-92 NSCLC = test system: HOP-92 NSCLC
SN12C renal = test system: SN12C renal
OVCAR-3 ovarian = test system: OVCAR-3 ovarian
U251 CNS = test system: U251 CNS
NCI-H460 lung = test system: NCI-H460 lung
T-47D breast = test system: T-47D breast
PC-3 prostate = test system: PC-3 prostate
CAKI-1 renal = test system: CAKI-1 renal
HCC-2998 colon = test system: HCC-2998 colon
HS 578T breast = test system: HS 578T breast
MCF7 breast = test system: MCF7 breast
CCRF-CEM leukemia = test system: CCRF-CEM leukemia
SK-OV-3 ovarian = test system: SK-OV-3 ovarian
SF-539 CNS = test system: SF-539 CNS
A549 NSCLC = test system: A549 NSCLC

## CC1=C(C)C(=O)O[C@@H]([C@](C)(O)[C@]2(O)CC[C@@]3(O)[C@@H]4C[C@H](O)[C@]5(O)[C@@H](O)C=CC(=O)[C@]5(C)[C@H]4CC[C@]23C)C1
NCI-H522 lung
  TGI: > 100 µM
SK-MEL-28 melanoma
  TGI: > 100 µM
IGROV1 ovarian
  TGI: > 100 µM
OVCAR-8 ovarian
  TGI: > 100 µM
SF-295 CNS
  TGI: > 100 µM
EKVX NSCLC
  TGI: > 100 µM
HCT-116 colon
  TGI: > 100 µM
SK-MEL-2 melanoma
  TGI: > 100 µM
786-0 renal
  TGI: > 100 µM
RPMI-8226 leukemia
  TGI: > 100 µM
OVCAR-5 ovarian
  TGI: > 100 µM
M14 melanoma
  TGI: > 100 µM
HOP-62 NSCLC
  TGI: > 100 µM
KM12 colon
  TGI: > 100 µM
SF-268 CNS
  TGI: > 100 µM
MOLT-4 leukemia
  TGI: > 100 µM
K-562 leukemia
  TGI: > 100 µM
SK-MEL-5 melanoma
  TGI: > 100 µM
TK-10 renal
  TGI: > 100 µM
UACC-62 melanoma
  TGI: > 100 µM
SR leukemia
  TGI: 84.3 µM
HL-60(TB) leukemia
  TGI: 56.8 µM
SW-620 colon
  TGI: > 100 µM
LOX IMVI melanoma
  TGI: > 100 µM
MALME-3M melanoma
  TGI: > 100 µM
SNB-75 CNS
  TGI: > 100 µM
A498 renal
  TGI: > 100 µM
RXF 393 renal
  TGI: > 100 µM
NCI-H226 lung
  TGI: > 100 µM
HT29 colon
  TGI: > 100 µM
MDA-MB-435
  TGI: > 100 µM
NCI-H23 lung
  TGI: > 100 µM
MDA-N
  TGI: > 100 µM
ACHN renal
  TGI: > 100 µM
COLO 205 colon
  TGI: > 100 µM
DU-145 prostate
  TGI: > 100 µM
MDA-MB-231 breast
  TGI: > 100 µM
OVCAR-4 ovarian
  TGI: > 100 µM
BT-549 breast
  TGI: > 100 µM
UACC-257 melanoma
  TGI: > 100 µM
SNB-19 CNS
  TGI: > 100 µM
HCT-15 colon
  TGI: > 100 µM
UO-31 renal
  TGI: > 100 µM
HOP-92 NSCLC
  TGI: > 100 µM
SN12C renal
  TGI: > 100 µM
OVCAR-3 ovarian
  TGI: > 100 µM
U251 CNS
  TGI: > 100 µM
NCI-H460 lung
  TGI: > 100 µM
T-47D breast
  TGI: > 100 µM
PC-3 prostate
  TGI: > 100 µM
CAKI-1 renal
  TGI: > 100 µM
HCC-2998 colon
  TGI: > 100 µM
HS 578T breast
  TGI: > 100 µM
MCF7 breast
  TGI: > 100 µM
CCRF-CEM leukemia
  TGI: 89.5 µM
SK-OV-3 ovarian
  TGI: > 100 µM
SF-539 CNS
  TGI: > 100 µM
A549 NSCLC
  TGI: > 100 µM
